# Experimental data published in patent publication US20220400703A1, “FORMULATIONS FOR TREATMENT OF VIBRIO INFECTIONS” (ARIZONA BOARD OF REGENTS ON BEHALF OF THE UNIVERSITY OF …, priority 2019, published 2022).
# Where “and” joins values, the source holds several entries; their conditions need not be identical. Equal values may be shown once. Entries after “also recorded” stand apart in the source; their conditions may differ.
# Legend:
# [1] = test system: VPAHPND (13-028/A3), AHPND-causing Vibrio parahaemolyticus; experiment: Paper disk diffusion assay; format: cell-based; details: mean ± SD; for Average diameter of inhibitory zone (mm) CNE 1/16: extract concentration 1/16 (v/v); for Average diameter of inhibitory zone (mm) CNE 1/16 / Average diameter of inhibitory zone (mm) CNE ¼ / Average diameter of inhibitory zone (mm) CNE ½ / Average diameter of inhibitory zone (mm) CNE ⅛: ND: not detected, <7 mm = no antimicrobial activity; for Average diameter of inhibitory zone (mm) CNE ¼: extract concentration ¼ (v/v); for Average diameter of inhibitory zone (mm) CNE ½: extract concentration ½ (v/v), 2 μL on paper disk, TSA+, 28° C., 24 hr; for Average diameter of inhibitory zone (mm) CNE ⅛: extract concentration ⅛ (v/v)
# Procedure: (§1) VPAHPND (13-028/A3) was revived from glycerol stock kept in −80 degrees C. in Aquaculture Pathology Laboratory following a previous publication (Han et al., 2015). Briefly, 800 mL of Tryptic Soy Broth (TSB) containing 2% NaCl (TSB+) medium was prepared and autoclaved. The bacterial stock was thawed on ice and briefly vortexed before transferring 250 μl of the bacterial culture to 5 ml TSB+ in a 50 ml flask. The flask was incubated at 28 degrees C. in a shaker incubator (CORNING, Model LSE) (120 rpm) for 2 h. After the incubation, the broth was transferred into 50 ml TSB+ in a 250 ml flask before incubating at 28 degrees C. in a shaker incubator (120 rpm) for 2 h. After 2 h., the bacterial culture was mixed with 300 ml TSB and incubated for 24 h at 28 degrees C. After 24 h, the optical density (OD) of the culture was measured at 600 nm. Under these culture conditions, the OD values should exceed 2.8. The broth was diluted to 1×10^7 CFU/ml based on the OD reading. A 10-fold serial dilution of the bacterial culture was prepared and the live bacterial count upon overnight growth was determined by plating the culture on Tryptic Soy Agar (TSA) containing 2% NaCl (TSA+) plates.
# The antibacterial activities of the NEs were tested using a paper disk diffusion assay following a previously published method with some modifications (Mith et al., 2014). Briefly, the extracts were diluted with fish oil (NE01-NE013) or DMSO (NE14 to NE18) at the following concentrations: 1:1, 1:2, 1:4, and 1:8. The VPAHPND (13-028/A3) culture lawns were created on TSA+plates by thoroughly streaking the culture over the entire surface of the plate with a cotton swab. Meanwhile, 2 μL of each concentration of the NEs was soaked on to a paper disk for 15 min before placing in the center of the bacteria inoculated TSA+plates. Fish oil and DMSO were used as controls. For each dilution of the NE two replicates were done. The plates were then incubated at 28° C. for 24 hr. The efficacy of the extract in inhibiting bacterial growth was determined by measuring the diameter of clear zones for each concentration to the nearest millimeter (mm). The diameter of the inhibitory zone <7 mm was considered as having no antimicrobial activity (Mith et al., 2014). The experiments were repeated four times for all 18 NEs, and the average was taken to calculate the diameter of the inhibitory zone.
# [2] = test system: Vibrio parahaemolyticus (Strain A3); experiment: Minimum inhibitory concentration (MIC) assay in liquid culture (OD600 and colony count); format: cell-based; details: for OD600: 24 hr; for MIC assay results: effective concentration (Example 1): Example 1, liquid culture; for MIC (Example 2): TSB+ liquid culture, OD600 and colony count, 24 h and 48 h; for Extract concentration at which bacterial count is zero / no survivors: viable colony count at 48 h on TSA+ plates
# Procedure: Absorbance (OD600) and total colony count (upon plating overnight culture grown in the presence of natural extracts) were employed for screening.
# as §1
# Initially extracts were diluted up to 50% with diluent fish oil, then a serial dilution of extracts was prepared Concentrations of extracts range between [0.3-0.0937% (v/v)], which was prepared in TSB+ (Tryptic soy broth) medium. The culture medium TSB+ (2 ml) containing NEs was inoculated with 100 μL (approx. 1×10^7 CFU/mL) of an overnight culture of the pathogen and briefly mixed by vortexing before incubating at 28 degrees C. The OD600 values was recorded at 12, 24 and 48 h post-incubation (FIG. 9). In addition, at each time point and for each concentration of the NEs, aliquots of bacterial suspension were inoculated on TSA+plate before incubating overnight at 28 degrees C. The MIC for each NE was determined by recording OD600 values and taking bacterial count. For each NE, the MIC assay was repeated three times on different days, and the average OD600 value was taken to determine the MIC for each concentration of a corresponding NE.
# VPAHPND cells = experiment: Scanning electron microscopy of NE treated VPAHPND cells; format: cell-based, Vibrio parahaemolyticus; details: sub-inhibitory concentration of extract, 24 hr incubation
# Procedure: The effect of NEs on bacterial cells was determined by culturing VPAHPND in medium containing NEs and examining the cells under a scanning electron microscope (SEM). The subinhibitory concentration of extracts used in the medium was MIC. The control treatment was VPAHPND grown in the presence of fish oil. Samples were fixed by following a protocol described by Lv et al. (2011) and McQuade et al. (2012) with some modifications. Briefly, 25 μl of 8% glutaraldehyde solution (Electron Microscopy Sciences, Hatfield, Pa.) was added to 200 μl of the overnight culture of bacteria. After 40 minutes of incubation at room temperature, samples were washed three times with 1× phosphate-buffered saline (PBS, pH 7.0). Subsequently, samples were washed with water and stained with 1% osmium tetroxide (Ted Pella, Inc., Redding, Ariz.). Finally, samples were washed in water and dehydrated in a series of ethanol solutions with concentrations ranging from 30% to 90% (v/v). The slides with fixed bacterial cells were mounted, sputter-coated in gold under vacuum, and examined using a […] field emission scanning electron microscope (ANATECH, USA).
# [3] = test system: AHPND-causing Vibrio parahaemolyticus; experiment: Histopathology (H&E) of hepatopancreas of shrimp from the AHPND bioassay; format: in vivo, Penaeus vannamei
# Description: (§2) Specific Pathogen Free shrimp (P. vannamei) (avg. weight 1-2 g) were stocked at a density of 10 shrimp/tank. In total there were two treatments and two controls: shrimp fed diet containing 20% NE05, 10% NE05, a positive and a negative control (shrimp fed diet containing fish oil). Each treatment and control had two replicates. Animals in all treatments except the negative control were subjected to an immersion challenge with V. parahaemolyticus. In the negative control tanks, sterilized TSB+ medium was added instead of bacterial suspension. Throughout the experiment, shrimps were fed corresponding diets daily at 5% of their body weight. The experiments were repeated three times. On day 6 post-feeding of the experimental diets, shrimps were challenged with V. parahaemolyticus at a dose of 10^6 CFU/ml (500 ml of V. parahaemolyticus culture grown for 24 h, OD600 of 5). After the bacterial challenge, tanks were monitored several times a day, and mortalities were recorded, and dead shrimps were removed immediately. Hepatopancreas tissue from moribund shrimp was dissected, half of the tissue was preserved in Davidson's fixative for histopathology, while the remaining half of hepatopancreas was stored at −20 degrees C. for PCR detection of V. parahaemolyticus. […] At the termination of the bioassay, average mortality for each treatment was calculated, and one-way ANOVA was performed to determine any significant difference among different treatments. A (p-value <0.05) between treatments was considered significant.
# Moribund shrimp were fixed in Davidson's alcohol-formalin-acetic acid (AFA). The samples were processed, embedded in paraffin, and sectioned ([…]) following a standard protocol (Lightner, 1996). The sections were stained with hematoxylin and eosin (H&E) and examined using a light microscope for histological lesions of AHPND (Tran et al., 2013).
# [4] = test system: AHPND-causing Vibrio parahaemolyticus; experiment: AHPND bioassay: NE05 in diet, immersion challenge (clinical signs, survival, mortality); format: in vivo, Penaeus vannamei; details: for Percent survival: 7 days post-challenge, three independent experiments
# Procedure: The efficacy of NE05 in preventing AHPND was evaluated by using an in vivo assay. The NE05 was mixed with a commercially pelleted shrimp diet at concentrations of 20% and 10% (v/w). Commercial diets containing 20% and 10% fish oil were used as controls. The feed was prepared using a standard feed maker (CORNING, Model LSE) and dried in a chemical hood for 24 h at room temperature. The feed was coated with fish oil dried for an additional 12 h to prevent the smell and increase palatability.
# Ten 37 L glass tanks were used in this study. Seawater was prepared following a SOP used in Aquaculture Pathology Laboratory. Approximately 800 g of sea salt (Marinex, Baltimore, Md.) was mixed with 30 L of tap water to get 20-25 ppt of salinity. After the marine salt was dissolved, salinity was checked using a refractometer (SPER SCIENTIFIC, Model #300011). The salinity level of the water was adjusted by adding water until the range needed for the study was reached (20-25 ppt). Throughout the experiment, the room temperature was maintained at 29±2 degrees C. using a heater. Before starting the bioassay, the tanks were held for two days without any animal to equilibrate the water temperature to that of the room. The water temperature was maintained at 29±2 degrees C. Each tank was equipped with an air pump having an air capacity of 2.5 liters/min connected to two air stones. One air stone was directly immersed into the tank, and the other one was connected to the filters. Disinfected weight was kept above each air stone. The heater was kept inside the room during the experiment.
# as §2
Compound,Average diameter of inhibitory zone (mm) CNE 1/16 [1],Average diameter of inhibitory zone (mm) CNE ¼ [1],Average diameter of inhibitory zone (mm) CNE ½ [1],Average diameter of inhibitory zone (mm) CNE ⅛ [1],MIC assay results: effective concentration (Example 1) [2],MIC (Example 2) [2],Extract concentration at which bacterial count is zero / no survivors [2],Bacterial cell morphology under SEM (VPAHPND cells),other results
"CC(C)=CCCC(C)=CC=O [NE01, Citral]",7.48 ± 0.42 mm,12.53 ± 0.50 mm,17.75 ± 1.4 mm,9.36 ± 0.58 mm,0.015 v/v %,0.15 v/v %,0.15 % (v/v),a few irregular wrinkled cells but also had a lot of intact cells,"OD600 ([2]; extract concentration 0.0983%): 2.5; OD600 ([2]; extract concentration 0.15% (v/v)): zero; Bacterial count ([2]; 48 h, extract concentration 0.0983% (v/v)): 2.5×10^9 CFU/ml"
"Cc1ccc(C(C)C)cc1O [NE03, Cavacrol]",8.53 ± 0.16 mm,16 ± 0.77 mm,20.51 ± 0.97 mm,13.53 ± 0.42 mm,0.007 v/v %,0.075 v/v %,0.075 % (v/v),non-intact lysed cells with possible leaking out of cytoplasmic constituents; also recorded: disruption of cell surface and leaking of cytoplasmic components; also recorded: affected bacterial cell wall resulting in its disruption and leaking of intracellular components,
"O=C/C=C/c1ccccc1 [NE05, Trans Cinnamaldehyde]",9.36 ± 0.32 mm,18.66 ± 0.98 mm,26±1.8 mm,14.03 ± 0.80 mm,0.002 v/v %,0.02 v/v %,0.02 % (v/v),"extensive cell wall damage, and possible leaking out of intracellular components; also recorded: disruption of cell surface and leaking of cytoplasmic components; also recorded: affected bacterial cell wall resulting in its disruption and leaking of intracellular components","Histopathology of hepatopancreas ([3]; NE05-10% treatment, 24 h post-challenge): Mild sloughing of epithelial cells in hepatopancreatic tubule; Histopathology of hepatopancreas ([3]; NE05-10% treatment, 48 h post-infection): hallmark of AHPND infection; Histopathology of hepatopancreas ([3]; NE05-20% treatment, 24 & 48 h post-challenge): did not show any lesions that are considered pathognomonic of AHPND; also recorded: showed no lesions that are pathognomonic of AHPND; H&E histological section of HP tissue (FIGS. 19E-19F) ([3]; diet containing NE05-10%, challenged with AHPND): Terminal phase lesions displaying sloughing of necrotic HP tubule epithelial cells; H&E histological section of HP tissue (FIGS. 19G-19H) ([3]; diet containing NE05-20%, challenged with AHPND): Hepatopancreatic tubule appear similar to healthy animals; Mortality by day 3 ([4]; diet containing NE05-10%): 85%; Time at which mortality began post-challenge ([4]; diet containing NE05-10%): 10 h; Percent survival ([4]; diet containing NE05-10%): 15%; Mortality during the first 24 h post-challenge ([4]; diet containing NE05-20%): did not show mortality; Percent survival ([4]; diet containing NE05-20%): 100% and 93%; Mortality by day 2 ([4]; diet containing NE05-20%, thereafter no mortality): 4%; Gross clinical signs of AHPND ([4]; shrimp fed diet containing NE05 at 10%, immersion challenge): appeared clinically similar to the animals fed commercial diet; also recorded: HP appeared pale and gut empty"
Doxycycline Hyclate [reference compound],,,,,,,,,"Average diameter of inhibitory zone (mm), antibiotic reference standard ([1]; Doxycycline Hyclate 10 μg): 24.43±0.57 mm"
